Molecules are shown by their SMILES.

T1 sequence (Q15858 whole entry): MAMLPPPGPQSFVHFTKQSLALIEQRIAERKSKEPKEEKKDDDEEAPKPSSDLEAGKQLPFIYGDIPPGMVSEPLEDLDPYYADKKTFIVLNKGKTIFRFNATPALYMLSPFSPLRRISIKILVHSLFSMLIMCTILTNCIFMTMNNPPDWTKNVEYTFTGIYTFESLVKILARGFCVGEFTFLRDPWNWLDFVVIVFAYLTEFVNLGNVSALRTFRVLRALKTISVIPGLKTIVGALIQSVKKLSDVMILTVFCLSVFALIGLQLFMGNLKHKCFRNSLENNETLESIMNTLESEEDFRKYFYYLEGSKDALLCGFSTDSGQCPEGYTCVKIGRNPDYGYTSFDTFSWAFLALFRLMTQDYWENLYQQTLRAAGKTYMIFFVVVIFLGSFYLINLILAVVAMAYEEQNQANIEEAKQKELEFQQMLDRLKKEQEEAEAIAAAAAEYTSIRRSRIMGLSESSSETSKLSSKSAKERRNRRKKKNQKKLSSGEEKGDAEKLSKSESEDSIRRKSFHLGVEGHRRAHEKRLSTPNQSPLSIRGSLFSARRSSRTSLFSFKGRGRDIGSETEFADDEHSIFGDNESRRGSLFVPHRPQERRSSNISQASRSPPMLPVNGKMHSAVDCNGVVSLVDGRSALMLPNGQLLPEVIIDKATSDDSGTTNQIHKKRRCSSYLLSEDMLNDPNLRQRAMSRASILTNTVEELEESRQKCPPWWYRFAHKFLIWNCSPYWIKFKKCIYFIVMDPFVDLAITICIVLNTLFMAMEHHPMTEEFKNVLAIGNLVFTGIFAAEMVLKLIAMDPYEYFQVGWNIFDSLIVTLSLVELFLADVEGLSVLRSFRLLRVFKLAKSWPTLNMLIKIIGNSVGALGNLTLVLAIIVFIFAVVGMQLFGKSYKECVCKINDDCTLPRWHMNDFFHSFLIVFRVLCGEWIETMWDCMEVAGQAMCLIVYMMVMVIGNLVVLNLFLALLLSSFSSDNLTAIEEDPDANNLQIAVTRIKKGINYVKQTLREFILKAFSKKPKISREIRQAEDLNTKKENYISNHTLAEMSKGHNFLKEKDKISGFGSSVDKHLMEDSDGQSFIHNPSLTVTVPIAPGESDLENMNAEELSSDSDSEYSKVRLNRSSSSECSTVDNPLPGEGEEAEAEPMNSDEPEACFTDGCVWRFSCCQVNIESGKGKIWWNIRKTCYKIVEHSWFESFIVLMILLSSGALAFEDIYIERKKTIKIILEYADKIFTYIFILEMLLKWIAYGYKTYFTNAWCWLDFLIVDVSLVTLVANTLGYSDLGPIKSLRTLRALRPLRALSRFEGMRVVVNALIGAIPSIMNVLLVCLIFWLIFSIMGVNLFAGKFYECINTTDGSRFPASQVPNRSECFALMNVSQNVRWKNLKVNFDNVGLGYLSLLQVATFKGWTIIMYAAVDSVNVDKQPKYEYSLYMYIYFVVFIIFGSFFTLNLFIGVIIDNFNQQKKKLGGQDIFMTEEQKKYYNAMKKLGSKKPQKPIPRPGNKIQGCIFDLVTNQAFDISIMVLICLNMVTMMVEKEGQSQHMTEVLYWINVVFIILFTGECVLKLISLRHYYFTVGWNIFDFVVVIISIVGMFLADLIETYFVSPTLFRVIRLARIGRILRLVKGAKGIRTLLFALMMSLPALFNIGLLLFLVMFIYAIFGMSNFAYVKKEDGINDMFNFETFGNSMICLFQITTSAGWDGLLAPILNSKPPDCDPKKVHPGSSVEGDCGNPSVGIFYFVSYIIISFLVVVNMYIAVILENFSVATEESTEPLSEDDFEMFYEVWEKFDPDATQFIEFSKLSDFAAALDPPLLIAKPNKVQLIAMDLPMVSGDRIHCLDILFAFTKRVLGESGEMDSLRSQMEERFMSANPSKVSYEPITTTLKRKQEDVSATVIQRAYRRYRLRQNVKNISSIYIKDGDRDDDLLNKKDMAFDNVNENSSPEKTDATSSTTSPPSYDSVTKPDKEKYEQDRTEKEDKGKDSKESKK

For the first experiment, the target named is T1, Nav1.7 (Homo sapiens, UniProt Q15858). The experiment can be described thus: EFS-FRET assay. It counts as cell-based. Further details: expressed in transfected cells; host or cells: CHO (Chinese hamster ovary) cells. The note with it: CHO cells expressing human Nav1.7 channels, read-out: IC50 against Nav1.7. The procedure:
This screen is used to determine the effects of compounds on human Nav1.7 channels, utilizing electrical field stimulation (EFS) system in 96-well plate format on FDSS (Hamamatsu Photonics) platform. The changes of membrane potential are monitored with FRET dye pair, DiSBAC2(3) and PTS18.
CHO (Chinese hamster ovary) cells expressing human Nav1.7 channels are grown in T225 flasks, in a 5% CO2 humidified incubator to about 80% confluence. Media composition consists of HAM/F12 with Glutamax I, 10% FCS, 100 units/mF penicillin and 100 microgram/mF hygromycin.
• Seed each cell lines (1×10^5 cells/well) into 96-well plates prior to experimentation. • Incubate at 37° C. in 5% CO2 for 24 hours. • Wash each well with assay buffer (140 mM NaCl, 4.5 mM KCl, 10 mM D-Glucose, 2 mM CaCl2, 1 mM MgCl2, 10 mM HEPES, pH 7.4 adjusted with NaOH) twice. • Add 1st loading solution containing 10 microM PTS18 and 0.06% Pluronic F-127 in assay buffer. • Incubate the plate at rt in dark for 1 hour. • Remove 1st loading solution and add 2nd loading solution containing 12.5 microM DiSBAC2(3), 1.25 mM Xylene Fast Yellow and 0.0075% Pluronic F-127 in assay buffer. • Place the plate under the dark at rt for 25 minutes. • Add compound solutions into the assay plate. • Set the assay plate in FDSS and place an EFS device on the plate. • Measure EFS-induced fluorescent response by FDSS.
The data are analyzed and reported as normalized ratios of intensities measured at […]. The process of calculating these ratios is performed as follows:
This analysis is performed using a computerized specific program designed for FDSS generated data. Fluorescence ratio values are plotted using XLfit to determine an IC50 value for each compound.
Turning to `CC(C)C(=O)Nc1cc(C(=O)N[C@@H]2CCCN(c3ccc(OC(F)(F)F)cc3Cl)C2)ccn1` [Example 127], the IC50 is under 500 nM. The same measure, in the same setting: with `Cc1cc(C(=O)NC2CN(c3ncc(C(F)(F)F)cc3Cl)C2)nc(NC(=O)C2CC2)n1` [Example 53] the figure was under 500 nM. Still for that read-out and setting: under `CCC(=O)Nc1cc(C(=O)N[C@H]2CN(c3ncc(C(F)(F)F)cc3Cl)CC23CC3)ccn1` [Example 116] stands under 500 nM; under `O=C(N[C@@H]1CCN(c2ncc(C(F)(F)F)cc2Cl)C1)c1ccnc(NC(=O)C2CC2)n1` [Example 21], under 500 nM; under `COc1cc(C(F)(F)F)cnc1N1CC[C@@H](NC(=O)c2ccnc(NC(=O)C(C)C)c2)C1` [Example 83], under 500 nM.

Take `CCC(=O)Nc1cc(C(=O)NC2CCC(C)N(c3ncc(C(F)(F)F)cc3Cl)C2)ccn1` (centres unmarked) [Example 42]: the IC50 was under 500 nM. `O=C(N[C@@H]1CCCN(c2ncc(OCC(F)(F)F)cc2Cl)C1)c1ccnc(NC(=O)C2CC2)c1` [Example 92]: the IC50 was under 500 nM. For the compound `CC(C)C(=O)Nc1cc(C(=O)N[C@@H]2CCN(c3ccc(C(F)(F)F)c(F)c3)C2)ccn1` [Example 123], the IC50 was under 500 nM. In the case of `Cc1cc(C(=O)N[C@H]2CN(c3ncc(C(F)(F)F)cc3Cl)CC23CC3)cc(NC(=O)C(C)C)n1` [Example 118], the IC50 was under 500 nM. `CC(=O)Nc1cc(C(=O)N[C@@H]2CCN(c3ncc(C(F)(F)F)cc3C)C2)ccn1` [Example 46]: the IC50 was under 500 nM.

On to `O=C(N[C@@H]1CCN(c2ncc(C(F)(F)F)cc2Cl)C1)c1ccnc(NC(=O)C2CC2)c1` [Example 9], for which the IC50 is under 500 nM.

For the compound `Cc1cc(C(=O)N[C@@H]2CCCN(c3ccc(OC(F)(F)F)cc3Cl)C2)nc(NC(=O)C2CC2)n1` [Example 132], the IC50 was under 500 nM. Same read-out and setting: under `CCC(=O)Nc1cc(C(=O)N[C@@H]2CCCN(c3ccc(OC(F)(F)F)cc3Cl)C2)ccn1` [Example 129] stands under 500 nM; under `CC(C)C(=O)Nc1nccc(C(=O)N[C@@H]2CCN(c3ncc(C(F)(F)F)cc3Cl)C2)n1` [Example 22], under 500 nM; under `O=C(N[C@@H]1CCCN(c2ccc(OC(F)(F)F)cc2Cl)C1)c1ccnc(NC(=O)C2CC2)c1` [Example 125], under 500 nM. Still for that read-out and setting: under `O=C(N[C@@H]1CCN(c2ncc(OCC(F)(F)F)cc2Cl)C1)c1ccnc(NC(=O)C2CC2)c1` [Example 93] stands under 500 nM; under `Cc1cc(C(=O)N[C@@H]2CCCN(c3ccc(OC(F)(F)F)cc3Cl)C2)cc(NC(=O)C(C)C)n1` [Example 128], under 500 nM; under `O=C(N[C@@H]1CCN(c2ccc(C(F)(F)F)cc2F)C1)c1ccnc(NC(=O)C2CC2)n1` [Example 121], under 500 nM. In the case of `CCC(=O)Nc1cc(C(=O)N[C@H]2CN(c3ncc(C(F)(F)F)cc3Cl)CC23CC3)cc(C)n1` [Example 107], the IC50 is under 500 nM.

Another experiment concerns the target T1, Nav1.7. The experiment can be described thus: Electrophysiology assay (whole cell patch clamp), affinity to inactivated state. It is filed as cell-based. More on the design: expressed in transfected cells. The following applies: affinity to inactivated state (Kinact), read-out: activity (Ki) against Nav1.7. Here is the method: Whole cell patch clamp recording is used to assess the efficacy or selectivity of Na (Sodium) channel blocker on human voltage gated sodium channels. Na channel expressing cells are dissociated by 0.05% Trypsin-EDTA or Accutase, and then seeded on cover glass for 2-24 hours.
Manual patch clamp recordings are conducted at rt using the voltage-clamp amplifier (Axon Instruments or HEKA electronik). Electrodes are pulled with P-97 electrode puller (Sutter Instrument). The electrode resistances are 1-3 MOhm when intercellular solution is filled. Currents are lowpass filtered between 2-5 kHz and digitally sampled at 10 kHz. […]
After whole-cell configuration is achieved, cell is monitored at least 10 minutes to allow cell dialysis with pipette solution. […]
Peak currents evoked by Test 1 and Test 2 pulses are sampled with Clampex (Axon Instruments) or Pulse+Pulse Fit (HEKA). Averaged peak currents under vehicle or test compounds are calculated from 3 data points at end of each condition.
Inhibitory effects (% inhibition) on peak currents at Test 1 or Test 2 pulse are plotted against test concentration and IC50 values at Test 1 (Closed IC50) or Test 2 (Inactivated IC50) are calculated with Hill equation, respectively. […]
After whole-cell configuration is achieved, the cell is monitored at least 10-15 minutes to allow cell dialysis with pipette solution. […]
`O=C(N[C@@H]1CCN(c2ncc(C(F)(F)F)cc2Cl)C1)c1ccnc(NC(=O)C2CC2)c1` [Example 9]: the Ki was under 200 nM.

(Values after US12110287B2, “Heterocyclic derivatives as Nav1.7 and Nav1.8 blockers” (RaQualia Pharma Inc., priority 2018, dated 2024).)
